The subject of one assay is S. enterica. Nature of the assay: checkerboard assay with colistin. The class given is cell-based, Salmonella enterica. The note with it: R-1 with colistin; FIC < 0.5 indicates synergy.
For assay [1], the system named is genes linked to the PhoPQ TCS. The note with it: cited from earlier work.
The subject of assay [2] is polymyxin-resistant S. enterica strain EG9492. The note with it: co-treatment of resistant strain EG9492s; cited from earlier work.

As for `Nc1nc2ccc(OC(F)(F)F)cc2s1` [R-1, riluzole], in the assay on S. enterica, the “fractional inhibitory concentration (FIC) value” stood at 0.28. Besides, the “expression of genes linked to the PhoPQ TCS” value in assay [1] was “downregulation”. Besides, in assay [2], the “change in the colistin MIC” value is recorded as ~ 8 fold.

Values taken from PMC13010972 (Chemical communications (Cambridge, England), 2026).
